Legend:
[1] = tested on: Mouse sarcoma 180 cells; experiment: Survival of ICR mouse after intraperitoneal transplantation of mouse sarcoma 180 cells; format: in vivo; details: male ICR mouse, sarcoma 180 cells intraperitoneally transplanted, 300 mg/kg for ten days, observation for 19 days
Description: Mouse sarcoma 180 cells were intraperitoneally transplanted (1×10^6) to male ICR mouse and, from the next day of the transplantation, BCH which was a inhibitor for the amino acid transporter, D-Leu having a inhibiting effect on amino acid transporter and D-Ala having no inhibiting action thereon were administered at the dose of 300 mg/kg for ten days. After the transplantation, it was confirmed every day whether the mouse was dead or alive.

[2] = tested on: rat liver cell line where LAT1 was highly expressed; experiment: Cell proliferation of cultured rat liver cell line, Cell Counting Kit-8; format: cell-based; details: 20 mM added to William's medium, incubation for 48 hours
Description: A rat liver cell line where LAT1 was highly expressed was incubated on a William's medium, 20 mM of D-leucine or BCH which suppressed the incorporation mediated by LAT1 were added to the medium and, by means of an incubation for 48 hours, cell numbers were investigated using a Cell Counting Kit-8 (manufactured by Dojindo Laboratories). The cell numbers were measured as an absorption at 450 nm (O.D. 450).

[3] = target: T1, human amino acid transporter LAT1 (Homo sapiens, UniProt Q01650); experiment: Incorporation of 14C-labeled amino acids into oocytes co-expressing human LAT1 and human 4F2hc; format: cell-based; parameters: expressed in transfected cells; details: for incorporation of 14C-labeled amino acid into oocytes: oocytes co-expressing human LAT1 and human 4F2hc, 14C-labeled substrate 50 μM, 30 minutes; for incorporation in a cell in which human LAT1 and human 4F2hc are co-expressed: summary statement of the disclosure
T1 sequence (Q01650 whole entry): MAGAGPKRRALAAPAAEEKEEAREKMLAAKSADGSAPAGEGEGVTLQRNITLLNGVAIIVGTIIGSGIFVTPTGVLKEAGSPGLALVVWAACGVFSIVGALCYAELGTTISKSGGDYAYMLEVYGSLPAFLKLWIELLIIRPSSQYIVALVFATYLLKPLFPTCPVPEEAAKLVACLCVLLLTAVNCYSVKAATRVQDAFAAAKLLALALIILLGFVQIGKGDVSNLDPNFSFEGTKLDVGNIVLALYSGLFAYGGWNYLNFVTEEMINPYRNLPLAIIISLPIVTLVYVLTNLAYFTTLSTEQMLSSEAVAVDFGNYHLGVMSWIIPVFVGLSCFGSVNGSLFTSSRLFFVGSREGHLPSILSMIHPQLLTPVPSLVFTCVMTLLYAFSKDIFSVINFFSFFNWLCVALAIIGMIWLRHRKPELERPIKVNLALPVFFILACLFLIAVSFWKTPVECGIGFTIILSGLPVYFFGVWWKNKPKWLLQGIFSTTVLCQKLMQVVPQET
T1 sequence (as listed by the source partner): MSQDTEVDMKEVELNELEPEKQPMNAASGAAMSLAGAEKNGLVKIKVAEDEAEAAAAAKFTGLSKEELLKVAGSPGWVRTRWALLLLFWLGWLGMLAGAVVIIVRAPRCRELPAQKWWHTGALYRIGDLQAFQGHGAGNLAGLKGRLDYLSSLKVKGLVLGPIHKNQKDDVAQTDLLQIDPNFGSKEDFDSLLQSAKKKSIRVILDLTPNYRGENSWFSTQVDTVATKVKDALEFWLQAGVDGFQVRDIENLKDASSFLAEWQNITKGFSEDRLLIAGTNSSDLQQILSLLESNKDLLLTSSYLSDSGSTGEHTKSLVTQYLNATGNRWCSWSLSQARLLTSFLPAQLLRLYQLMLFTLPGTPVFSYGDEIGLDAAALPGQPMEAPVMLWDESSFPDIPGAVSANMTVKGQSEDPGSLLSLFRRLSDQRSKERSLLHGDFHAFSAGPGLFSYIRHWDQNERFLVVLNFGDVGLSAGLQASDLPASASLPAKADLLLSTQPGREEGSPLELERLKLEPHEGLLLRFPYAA

[4] = target: T1, human amino acid transporter LAT1; experiment: Competitive antagonism test: incorporation of 14C-labeled leucine or phenylalanine into oocytes co-expressing human LAT1 and human 4F2hc in the presence of test substance; format: cell-based; parameters: expressed in transfected cells; details: test substance 2 mM, 30 minutes; for inhibition of incorporation of 14C-labeled leucine mediated by the human LAT1: 14C-labeled leucine 20 μM, choline chloride uptake solution
[5] = tested on: T24 cells derived from human bladder cancer; experiment: Inhibition of 14C-leucine incorporation by T24 cells by amino acids and similar substances; format: cell-based; details: 14C-leucine 20 μM, 2 mM unlabeled compound
[6] = target: T2, rat neutral amino acid transporter LAT1 (Rattus norvegicus, UniProt Q63016); experiment: Inhibition of 14C-leucine incorporation into oocytes injected with rat LAT1 and rat 4F2hc cRNA by amino acids and similar substances; format: cell-based; parameters: expressed in transfected cells; host or cells: oocytes (Xenopus laevis by the cited method of Kanai and Hediger) injected with rat LAT1 cRNA and rat 4F2hc cRNA; details: rat LAT1/rat 4F2hc oocytes; 14C-leucine 20 μM, 2 mM unlabeled compound, choline uptake solution
T2 sequence (Q63016 whole entry): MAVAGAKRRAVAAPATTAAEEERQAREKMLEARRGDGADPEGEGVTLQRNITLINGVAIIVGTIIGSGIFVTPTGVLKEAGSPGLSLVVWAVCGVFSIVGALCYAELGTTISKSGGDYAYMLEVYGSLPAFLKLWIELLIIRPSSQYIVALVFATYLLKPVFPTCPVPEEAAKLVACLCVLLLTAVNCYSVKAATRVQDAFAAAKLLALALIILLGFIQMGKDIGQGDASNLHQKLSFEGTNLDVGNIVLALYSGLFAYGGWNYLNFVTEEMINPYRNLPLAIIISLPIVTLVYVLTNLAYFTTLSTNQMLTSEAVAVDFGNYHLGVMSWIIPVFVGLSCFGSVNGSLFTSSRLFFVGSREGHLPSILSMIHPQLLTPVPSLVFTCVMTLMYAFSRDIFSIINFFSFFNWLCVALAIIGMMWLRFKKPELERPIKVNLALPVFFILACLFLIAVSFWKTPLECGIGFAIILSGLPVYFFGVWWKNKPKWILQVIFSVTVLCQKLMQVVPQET
T2 sequence (Q794F9 whole entry partner): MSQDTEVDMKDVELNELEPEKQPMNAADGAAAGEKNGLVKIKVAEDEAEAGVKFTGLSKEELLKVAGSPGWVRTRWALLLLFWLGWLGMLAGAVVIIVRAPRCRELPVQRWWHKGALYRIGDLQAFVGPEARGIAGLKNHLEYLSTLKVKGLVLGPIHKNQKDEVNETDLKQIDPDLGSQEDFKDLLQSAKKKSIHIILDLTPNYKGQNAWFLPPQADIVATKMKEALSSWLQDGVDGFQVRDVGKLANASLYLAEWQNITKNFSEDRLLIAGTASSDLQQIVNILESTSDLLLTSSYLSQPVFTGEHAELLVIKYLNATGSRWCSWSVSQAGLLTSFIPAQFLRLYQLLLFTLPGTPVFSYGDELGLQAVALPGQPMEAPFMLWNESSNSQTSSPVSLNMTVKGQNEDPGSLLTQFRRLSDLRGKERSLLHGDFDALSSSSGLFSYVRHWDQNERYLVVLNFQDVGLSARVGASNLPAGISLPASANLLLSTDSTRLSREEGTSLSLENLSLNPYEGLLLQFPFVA

[7] = target: T2, rat neutral amino acid transporter LAT1; experiment: Incorporation of radiolabeled amino acids into oocytes injected with rat LAT1 and rat 4F2hc cRNA; format: cell-based; parameters: expressed in transfected cells; host or cells: oocytes (Xenopus laevis by the cited method of Kanai and Hediger) injected with rat LAT1 cRNA and rat 4F2hc cRNA; details: 14C compounds as substrates
Description: Thus, the oocytes into which rat LAT1 gene cRNA, rat 4F2hc gene cRNA or rat LAT1 gene cRNA/rat 4F2hc gene cRNA was injected were incubated for 30 minutes in an uptake solution containing ^14C-leucine (50 μM) and incorporation of radioactivity into the oocytes was measured.
As a substrate however, various radiolabeled compounds were used in place of ^14C-leucine.

Row | Structure (SMILES) | incorporation of 14C-labeled amino acid into oocytes [3] | incorporation in a cell in which human LAT1 and human 4F2hc are co-expressed [3] | inhibition of incorporation of 14C-labeled leucine mediated by the human LAT1 [4] | inhibition of incorporation of 14C-leucine by T24 cells [5] | inhibition of incorporation of 14C-leucine mediated by LAT1 [6] | incorporation of radiolabeled substrate into the oocytes [7] | further results
1 | C[C@@H](N)C(=O)O [D-Ala] | – | – | – | – | – | – | survival effect [1]: No survival effect
2 | CC(C)C[C@@H](N)C(=O)O [D-leucine] | incorporated | – | – | – | – | – | cell numbers (O.D. 450) compared with control group [2]: a reduction in the cell numbers was noted; survival effect [1]: significant survival effect
3 | N[C@H](Cc1ccccc1)C(=O)O [D-phenylalanine] | incorporated | – | – | – | – | – | –
4 | N[C@@H](Cc1ccc(O)c(O)c1)C(=O)O [L-DOPA] | – | confirmed | – | – | – | – | inhibition of incorporation of 14C-labeled phenylalanine into oocytes ([4]; 14C-labeled phenylalanine instead of leucine, choline uptake solution): strongly inhibited
5 | N=C(N)NCCC[C@H](N)C(=O)O [arginine] | – | – | not affected at all | – | – | – | –
6 | NC(=O)C[C@H](N)C(=O)O [asparagine] | – | significant incorporation | – | – | – | – | –
7 | N[C@@H](CC(=O)O)C(=O)O [aspartic acid] | – | – | not affected at all | – | – | – | –
8 | N[C@@H](CS)C(=O)O [cysteine] | – | significant incorporation | – | strong cis-inhibiting effect | – | – | –
9 | N[C@@H](CCC(=O)O)C(=O)O [glutamic acid] | – | – | not affected at all | – | – | – | –
10 | NC(=O)CC[C@H](N)C(=O)O [glutamine] | – | significant incorporation | – | – | – | – | –
11 | N[C@@H](Cc1c[nH]cn1)C(=O)O [histidine] | significantly incorporated | very strong incorporation | strongly inhibited | strong cis-inhibiting effect | strongly inhibited | incorporation into the oocytes was noted | –
12 | CC[C@H](C)[C@H](N)C(=O)O [isoleucine] | significantly incorporated | very strong incorporation | strongly inhibited | strong cis-inhibiting effect | strongly inhibited | incorporation into the oocytes was noted | –
13 | NCCCC[C@H](N)C(=O)O [lysine] | – | – | not affected at all | – | – | – | –
14 | N[C@@H](Cc1ccc(N(CCCl)CCCl)cc1)C(=O)O [melphalan] | – | – | – | – | inhibited | – | –
15 | CSCC[C@H](N)C(=O)O [methionine] | significantly incorporated | very strong incorporation | strongly inhibited | strong cis-inhibiting effect | strongly inhibited | incorporation into the oocytes was noted | –
16 | N[C@@H](Cc1ccccc1)C(=O)O [phenylalanine] | significantly incorporated | very strong incorporation | strongly inhibited | strong cis-inhibiting effect | strongly inhibited | incorporation into the oocytes was noted | –
17 | C[C@@H](O)[C@H](N)C(=O)O [threonine] | – | significant incorporation | – | – | – | – | –
18 | N[C@@H](Cc1cc(I)c(Oc2cc(I)c(O)c(I)c2)c(I)c1)C(=O)O [thyroxin] | – | – | – | – | inhibited | – | –
19 | N[C@@H](Cc1c[nH]c2ccccc12)C(=O)O [tryptophan] | significantly incorporated | very strong incorporation | strongly inhibited | strong cis-inhibiting effect | strongly inhibited | incorporation into the oocytes was noted | –
20 | N[C@@H](Cc1ccc(O)cc1)C(=O)O [tyrosine] | significantly incorporated | very strong incorporation | strongly inhibited | strong cis-inhibiting effect | strongly inhibited | incorporation into the oocytes was noted | –
21 | CC(C)[C@H](N)C(=O)O [valine] | significantly incorporated | very strong incorporation | strongly inhibited | strong cis-inhibiting effect | strongly inhibited | incorporation into the oocytes was noted | –

Reference: patent publication US7413895B2, “DNA encoding neutral amino acid transporter” (Japan Science and Technology Corporation, priority 1998, dated 2008)
